{"source": "patent US4859229A", "about": "“3-Aryluracils having an ether (thio) carbomyloxy or sulphomyloxy substituent on the aromatic moiety” (Hoffmann-La Roche Inc., priority 1986, dated 1989)", "test_system": "weeds, including weed grasses", "experiment": "herbicidal activity (general statement, no test described)", "type": "in vivo", "details": "in words; no rate or test printed"}
{"smiles": "Cn1c(C(F)(F)F)cc(=O)n(-c2cc(O)c(Cl)cc2F)c1=O", "note": "[3-(4-chloro-2-fluoro-5-hydroxyphenyl)-1-methyl-6-trifluoromethyl-2,4(1H,3H)-pyrimidinedione]", "values": [{"measurement": "herbicidal activity", "value": "especially pronounced herbicidal activity"}]}
